“Also recorded” adds a separate entry of the source.
Legend:
[1] = system: footpad swelling; assay: Footpad injections alone in naïve mice; format: in vivo; details: 2 mM, 30 μl
Description: (§1) Mice Carrageenan Footpad Edema Model. Carrageenan (C1867, Sigma-Aldrich®, 2% in PBS, 30 μl) was injected into the right footpad while PBS (30 μl) was injected in the left footpad as a negative control. For preliminary testing of CFZ as an anti-inflammatory agent, 8-week orally fed mice (CFZ and control) were used. For testing of CFZ in soluble and microcrystal form, naïve 4-5 week old mice were injected with carrageenan first followed by injection of CFZ-A (2 mM in DMSO, 30 μl), CLDIs (2 mM equivalent in PBS, 30 μl) or CFZ-HCl (2 mM equivalent in PBS, 30 μl) at 48 h post carrageenan injection. For control experiments, CFZ-A, CLDIs and CFZ-HCl were injected into the right footpads of naïve 4-5 week old mice. DMSO was used as a control for CFZ-A in the left footpad whereas PBS was used as a control for CLDIs and CFZ-HCl. Footpads were measured (length—l, width—w, three thicknesses—t1, t2, t3) at various time points using a digital vernier calliper and changes in the swelling based on volume of the foot was calculated as per above.

[2] = system: carrageenan-based footpad-edema model; assay: Carrageenan footpad edema model, local injection 48 h post carrageenan; format: in vivo, mice; details: 30 μl, injected 48 h post carrageenan; for subsequent footpad swelling after local injection: 2 mM
Description: as §1

CC(C)N=c1cc2n(-c3ccc(Cl)cc3)c3ccccc3nc-2cc1Nc1ccc(Cl)cc1.Cl [CFZ-A]
inflammation/swelling after injection alone [1]: measurable inflammatory response initially; also recorded: some swelling | subsequent footpad swelling after local injection [2]: did not lead to a measurable anti-inflammatory response

CC(C)N=c1cc2n(-c3ccc(Cl)cc3)c3ccccc3nc-2cc1Nc1ccc(Cl)cc1.Cl [CFZ-HCl]
inflammation/swelling after injection alone [1]: did not induce any measurable inflammation; also recorded: no signs of swelling | footpad swelling inhibition beyond 24 h post therapy ([2]; 2 mM equivalent): sustained for a further 24 h | subsequent footpad swelling after local injection [2]: inhibited for 24 h post therapy
